For orientation: MIC means the least concentration at which growth counts as inhibited. Lower therefore signals inhibition by little substance.

Among the data in ChEMBL document CHEMBL1141775, “Friedolanostanes and lanostanes from the leaves of Garcinia hombroniana” (2005) are MIC values, retold here.

This assay concerns Staphylococcus aureus. Nature of the assay: Antibacterial activity against methicillin-resistant Staphylococcus aureus. The format is functional.
`COC(=O)[C@H](C)CC(=O)C[C@@H](C)C1=CC[C@@]2(C)[C@@H]3CC[C@H]4C(C)(C)[C@@H](O)CC[C@]4(C)C3=CC[C@]12C` returned an MIC of over 128 µg/mL.
`COC(=O)/C(C)=C/[C@H](O)C[C@@H](C)[C@]1(C)CC=C2[C@@H]3CC[C@H]4C(C)(C)[C@H](O)CC[C@]4(C)[C@@]3(O)CC[C@]21C` [GARCIHOMBRONANE B] gave a minimum inhibitory concentration (MIC) of over 128 µg/mL.
For `CC(C)=C/C=C\[C@@H](C)[C@]1(C)CC=C2[C@@H]3CC[C@H]4C(C)(C)[C@H](O)CC[C@]4(C)[C@@]3(O)CC[C@]21C` [GARCIHOMBRONANE F] the value was over 128 µg/mL.
As for `C/C(=C\C=C/[C@@H](C)[C@]1(C)CC[C@]2(C)C1=CC[C@@]1(O)[C@H]2CC[C@H]2C(C)(C)[C@H](O)CC[C@@]21C)C(=O)O` [GARCIHOMBRONANE G], the figure is over 128 µg/mL; as for `C/C(=C\CC[C@@H](C)[C@]1(C)CC[C@]2(C)C1=CC[C@@]1(O)[C@H]2CC[C@H]2C(C)(C)[C@H](O)CC[C@@]21C)C(=O)O` [GARCIHOMBRONANE H], over 128 µg/mL; as for `C/C(=C\CC[C@@H](C)[C@]1(C)CC[C@]2(C)C1=CC[C@@]1(O)[C@H]2CC[C@H]2C(C)(C)[C@@H](O)CC[C@@]21C)C(=O)O` [GARCIHOMBRONANE I], over 128 µg/mL.
As for `COC(=O)[C@H](C)CC(=O)C[C@@H](C)C1=CC[C@@]2(C)[C@@H]3CC[C@H]4C(C)(C)[C@H](O)CC[C@]4(C)C3=CC[C@]12C` [GARCIHOMBRONANE J], the figure is over 128 µg/mL; as for `COC(=O)/C(C)=C/[C@H](O)C[C@@H](C)[C@]1(C)CC=C2C3=C(CC[C@]21C)[C@@]1(C)CC[C@@H](O)C(C)(C)[C@@H]1CC3` [GARCIHOMBRONANES C], over 128 µg/mL.
The compound `C[C@H](CC(=O)C[C@@H](C)C1=CC[C@@]2(C)[C@@H]3CC[C@H]4C(C)(C)[C@@H](O)CC[C@]4(C)C3=CC[C@]12C)C(=O)O` [GARCIHOMBRONANES D] gave a minimum inhibitory concentration (MIC) of over 128 µg/mL.
With `C[C@H](CC(=O)C[C@@H](C)C1=CC[C@@]2(C)[C@@H]3CC[C@H]4C(C)(C)[C@H](O)CC[C@]4(C)C3=CC[C@]12C)C(=O)O` [GARCIHOMBRONANES E], the MIC was over 128 µg/mL.
